Laboratory results from ChEMBL document CHEMBL4837236, “Polyketides with Anti-neuroinflammatory Activity from Theissenia cinerea” (J Nat Prod, 2021).

Columns and labels:
BV-2 [1] = test: Antiinflammatory activity in mouse BV2 cells assessed as inhibition of LPS-induced NO-production by measuring NO level at 10 uM preincubated for 1 hr followed by LPS stimulation and measured after 24 hrs by microplate reader based colorimetric assay (reference value: 26.6 +/- 8.1 uM); type: functional
BV-2 [2] = test: Cytotoxicity against mouse BV2 cells assessed as cell viability at 10 uM after 24 hrs by MTT assay; type: cell-based; settings: bv-2, 24 h
BV-2 [3] = test: Antiinflammatory activity in mouse BV2 cells assessed as inhibition of LPS-induced NO-production preincubated for 1 hr followed by LPS stimulation and measured after 24 hrs by microplate reader based colorimetric assay; type: functional, cell-based; settings: for inhibition: time 25.0 hrs

Row | SMILES | NO level (BV-2 [1]) | Activity (BV-2 [2]) | IC50 (BV-2 [3]) | inhibition (BV-2 [3])
1 | COc1cc(O)c2c(c1)[C@H](O)[C@]13CO[C@H](O)[C@]1(O3)C2=O | 2.6 µM | Non-Toxic | 3.2 µM | Dose-Dependent Effect
2 | COc1cc(/C=C/C(=O)CC(=O)/C=C/c2ccc(O)c(OC)c2)ccc1O [CURCUMIN] | 5.5 µM |  | 3 µM | 
3 | C[C@@H]1OC(=O)c2c(O)ccc(O)c2[C@@H]1O | 28.9 µM | Non-Toxic |  | 
4 | C/C=C/[C@@H]1O[C@H]2C(=C[C@H]1O)C(=O)O[C@@H]2C | 1.9 µM | Non-Toxic | 1.1 µM | 
5 | C/C=C/[C@@H]1O[C@@H]2[C@@H](C)OC(=O)[C@]2(O)C[C@H]1O | 25.5 µM | Non-Toxic |  | 
6 | CCC/C=C/C1=C(CO)[C@@H](O)[C@@H]2O[C@@H]2[C@@H]1O | 24.3 µM | Non-Toxic |  | 
7 | CC(O)C/C=C/[C@H](O)[C@H](O)/C=C/c1cccc(O)c1CO (some centres undefined) | 26.6 µM | Non-Toxic |  | 
8 | COc1cc(O)c2c(c1)[C@H](O)[C@@]1(CO)O[C@@]1(CO)C2=O | 10.5 µM | Non-Toxic | 5 µM | Dose-Dependent Effect
9 | C/C=C/[C@H]1O[C@@H]2C(=C[C@H]1O)C(=O)O[C@@H]2C | 2.2 µM | Non-Toxic | 4.5 µM | 
